Data set [1] has as its system pancreatic cancer (Panc-1) cell line. Put plainly: Antiproliferative MTT assay, Panc-1. It is filed as cell-based. The settings on record: Homo sapiens, Panc-1 pancreatic cancer cells, read-out: Antiproliferative activity IC50 ± SEM Panc-1. The procedure:
(§1) 4.2.1.2. Assay for antiproliferative effect
(§2) To explore the antiproliferative potential of compounds MTT assay was performed according to previously reported procedure using different cell lines to explore the antiproliferative potential of […]
(§3) calculate the total nuclear DNA, a fluorescent dye (propidium iodide, PI) is used which can attach to the DNA, thus offering a quick and precise technique. PI cannot pass through the cell membrane and its signal intensity can be considered as directly proportional to quantity of cellular DNA.
(§4) Cells whose cell membranes are damaged or have changed permeability are counted as dead ones.
(§5) The assay was performed by seeding the cells of different cell lines at a density of 3000-7500 cells/well (in 200µl medium) in culture plates followed by incubation for 24h at 37 °C in humidified 5% CO2/95% air atmospheric conditions. The medium was removed; the compounds were added to the plates at 10 µM concentrations (in 0.1% DMSO) in triplicates, followed by incubation for 48 h. DMSO (0.1%) was used as control. After incubation, medium was removed […]
(§6) 80 °C, the plates were allowed to freeze for 24 h, followed by thawing at 25 °C. […]
(§7) (Polar-Star BMG Tech) was used to record the readings at excitation and emission wavelengths of 530 and 620 nm for each well. The percentage cytotoxicity of compounds was calculated using […]
(§8) Where ATC= Absorbance of treated cells and AC= Absorbance of control. Erlotinib was used as positive control in the assay.
In general terms: Formazan colour is commonly taken as a measure of viable cells.

Data set [2] relates to colon cancer (HT-29) cell line. The experiment in a line: Antiproliferative MTT assay, HT-29. It is filed as cell-based. The settings on record: Homo sapiens, HT-29 colon cancer cells, read-out: Antiproliferative activity IC50 ± SEM HT-29.
Data set [3] is described as follows: Cell viability, MTT test on normal cell line. The settings on record: human, MCF-10A mammary gland epithelial cells (normal cell line), MCF-10A normal cells, 4 days incubation. In kind it is cell-based. The procedure:
The human mammary gland epithelial (MCF-10A) normal cell line was used to test the viability of novel compounds 9a-o ([Mahmoud et al., 2022]; [Mekheimer et al., 2022]). After 4 days of incubation on MCF-10A cells, the cell viability of compounds 9a-o was determined using the MTT test.
The human mammary gland epithelial (MCF-10A) normal cell line was used to test the viability of compounds 9a-o ([Mahmoud et al., 2022]; [Mekheimer et al., 2022]). Refer to Supplementary Appendix A (Supplementary Material) for more details.
4.2. Biological evaluation
4.2.1. Cytotoxic activity using MTT Assay and evaluation of IC50
MTT assay was carried out to study the effect of compounds on mammary epithelial cells (MCF-10A). The medium in which cells were propagated contained Dulbecco's modified Eagle's medium (DMEM)/ Ham's F-12 medium (1:1) supplemented with epidermal growth factor (20 ng/mL), hydrocortisone (500 ng/mL), insulin (10 μg/mL), 2 mM glutamine and 10% foetal calf serum.
After every 2-3 days, the cells were passaged using trypsin ethylenediamine tetra acetic acid (EDTA). The cells were seeded at a density of 10^4 cells mL-1 in flat-bottomed culture plates containing 96 wells each. After 24 h, medium was removed from the plates and the compounds in (in 0.1% DMSO) were added (in 200 μL medium to yield a final concentration of 0.1% v/v) to the wells of plates. A single compound was designated with four wells followed by incubation of plates for 96h at 37°C. After incubation, medium was removed completely from the plates followed by addition of MTT (0.4 mg/mL in medium) to each well and subsequent incubation of plates for 3h. MTT (along with the medium) was removed and DMSO (150μL) was added to each well of the culture plates, followed by vertexing and subsequent measurement of absorbance (at 540 nm) using microplate reader. The data are shown as percentage inhibition of proliferation in comparison with controls containing 0.1% DMSO.

In data set [4] the test system is breast cancer (MCF-7) cell line. The experiment in a line: Antiproliferative MTT assay, MCF-7. The settings on record: Homo sapiens, MCF7, MCF-7 breast cancer cells, read-out: Antiproliferative activity IC50 ± SEM MCF-7. In kind it is cell-based. On the procedure: as §1, §2, §3, §4, §5, §6, §7, §8
Data set [5] relates to four human cancer cell lines (HT-29, Panc-1, A-549, MCF-7). The experiment in a line: Average antiproliferative activity (GI50) over four cancer cell lines. It is filed as cell-based. The settings on record: average IC50 against the four cancer cell lines. On the procedure:
as §1, §2, §3, §4, §5, §6, §7, §8

Data set [6] concerns lung cancer (A-549) cell line. The experiment in a line: Antiproliferative MTT assay, A-549. In kind it is cell-based. The settings on record: Homo sapiens, A549, A-549 lung cancer cells, read-out: Antiproliferative activity IC50 ± SEM A-549. On the procedure: as §1, §2, §3, §4, §5, §6, §7, §8

Regarding `O=c1c2ccccc2nc(SCc2nc(-c3ccccc3)no2)n1-c1ccccc1` [Compound 9a, 2-((3-Phenyl-1,2,4-oxadiazol-5-yl)methylthio)-3-phenylquinazolin-4(3H)-one], the melting point fell in the range of 162 to 164 °C. Moreover, the IC50 in data set [1] was found to be 48 ± 4 nM. For the same compound, the IC50 in data set [2] amounted to 48 ± 4 nM. In data set [3], this compound returned a viability at 96 h, 50 µM of 90%. Besides, the IC50 in data set [4] is 50 ± 4 nM. For the same compound, in data set [5], it took 48 nM to inhibit growth by half (GI50). The IC50 in data set [6] was found to be 46 ± 4 nM.
Regarding `Cc1ccc(-n2c(SCc3nc(-c4ccccc4)no3)nc3ccccc3c2=O)cc1` [Compound 9d, 2-((3-Phenyl-1,2,4-oxadiazol-5-yl)methylthio)-3-p-tolylquinazolin-4(3H)-one], the melting point was in the range of 168 to 170 °C. In data set [1], the IC50 amounted to 54 ± 5 nM. Further, the IC50 in data set [2] turned out to be 55 ± 5 nM. The same compound registered a viability at 96 h, 50 µM in data set [3] of 90%. Further, the IC50 in data set [4] stood at 58 ± 5 nM. Further, the GI50 in data set [5] stood at 55 nM. In addition, in data set [6], the IC50 was found to be 54 ± 4 nM.
Consider `Cc1ccc(-n2c(SCc3nc(-c4ccc(Cl)cc4)no3)nc3ccccc3c2=O)cc1` [Compound 9e, 2-((3-(4-Chlorophenyl)-1,2,4-oxadiazol-5-yl)methylthio)-3-p-tolylquinazolin-4(3H)-one], for which the melting point lay in the range of 156 to 158 °C. Besides, the IC50 in data set [1] was found to be 42 ± 4 nM. Also, in data set [2], the IC50 is 42 ± 4 nM. The viability at 96 h, 50 µM in data set [3] amounted to 91%. Moreover, the IC50 in data set [4] stood at 44 ± 4 nM. For the same compound, the GI50 in data set [5] worked out at 42 nM. Moreover, in data set [6], the IC50 amounted to 40 ± 3 nM.
On to `COc1ccc(-c2noc(CSc3nc4ccccc4c(=O)n3-c3ccc(C)cc3)n2)cc1` [Compound 9f, 2-((3-(4-Methoxyphenyl)-1,2,4-oxadiazol-5-yl)methylthio)-3-p-tolylquinazolin-4(3H)-one], for which the melting point lay in the range of 165 to 167 °C. In data set [1], the IC50 was 52 ± 5 nM. In data set [2], the IC50 amounted to 52 ± 5 nM. In data set [3], the viability at 96 h, 50 µM was 92%. Also, in data set [4], the IC50 is 53 ± 5 nM. The compound further returned a concentration for 50% growth inhibition (GI50) in data set [5] of 52 nM. For the same compound, the IC50 in data set [6] stood at 50 ± 4 nM.
Compound `Cc1cccc(-n2c(SCc3nc(-c4ccccc4)no3)nc3ccccc3c2=O)c1` [Compound 9g, 2-((3-Phenyl-1,2,4-oxadiazol-5-yl)methylthio)-3-m-tolylquinazolin-4(3H)-one] yielded a melting point of 170 to 172 °C. Besides, in data set [1], the IC50 is 50 ± 5 nM. Also, the IC50 in data set [2] worked out at 50 ± 5 nM. For the same compound, the viability at 96 h, 50 µM in data set [3] turned out to be 90%. The IC50 in data set [4] was 52 ± 5 nM. Further, the GI50 in data set [5] is 50 nM. Further, in data set [6], the IC50 is 49 ± 4 nM.
As to `COc1ccc(-c2noc(CSc3nc4ccccc4c(=O)n3-c3cccc(C)c3)n2)cc1` [Compound 9i, 2-((3-(4-Methoxyphenyl)-1,2,4-oxadiazol-5-yl)methylthio)-3-m-tolylquinazolin-4(3H)-one], the melting point is 194 to 196 °C. In addition, in data set [1], the IC50 amounted to 66 ± 6 nM. Also, the IC50 in data set [2] was 68 ± 6 nM. Moreover, the viability at 96 h, 50 µM in data set [3] is 91%. In addition, in data set [4], the IC50 was found to be 69 ± 6 nM. Further, the GI50 in data set [5] turned out to be 67 nM. Besides, the IC50 in data set [6] turned out to be 65 ± 6 nM.
`CCn1c(SCc2nc(-c3ccccc3)no2)nc2ccccc2c1=O` [Compound 9j, 2-((3-Phenyl-1,2,4-oxadiazol-5-yl)methylthio)-3-ethylquinazolin-4(3H)-one] showed a melting point of 114 to 116 °C. Besides, the IC50 in data set [1] is 68 ± 6 nM. Besides, the IC50 in data set [2] stood at 68 ± 6 nM. Also, in data set [3], the viability at 96 h, 50 µM is 90%. In data set [4], the IC50 was 76 ± 7 nM. The compound further displayed a GI50 in data set [5] of 70 nM. Moreover, the IC50 in data set [6] was 69 ± 6 nM.
With `C=CCn1c(SCc2nc(-c3ccccc3)no2)nc2ccccc2c1=O` [Compound 9m, 2-((3-Phenyl-1,2,4-oxadiazol-5-yl)methylthio)-3-allylquinazolin-4(3H)-one], the melting point fell in the range of 110 to 112 °C. Besides, in data set [1], the IC50 stood at 64 ± 6 nM. Also, the IC50 in data set [2] turned out to be 62 ± 6 nM. The compound also yielded a viability at 96 h, 50 µM in data set [3] of 92%. Moreover, in data set [4], the 50% inhibitory concentration (IC50) was determined as 65 ± 6 nM. Also, the GI50 in data set [5] is 63 nM. Moreover, the IC50 in data set [6] was determined as 62 ± 6 nM.
`C=CCn1c(SCc2nc(-c3ccc(Cl)cc3)no2)nc2ccccc2c1=O` [Compound 9n, 2-((3-(4-Chlorophenyl)-1,2,4-oxadiazol-5-yl)methylthio)-3-allylquinazolin-4(3H)-one]: the melting point was in the range of 115 to 117 °C. In data set [1], the IC50 is 45 ± 4 nM. Also, the IC50 in data set [2] was 44 ± 4 nM. Further, the viability at 96 h, 50 µM in data set [3] stood at 91%. In addition, the IC50 in data set [4] came to 47 ± 4 nM. Further, the GI50 in data set [5] was 45 nM. Moreover, the 50% inhibitory concentration (IC50) in data set [6] was 43 ± 4 nM.
On to `C=CCn1c(SCc2nc(-c3ccc(OC)cc3)no2)nc2ccccc2c1=O` [Compound 9o, 2-((3-(4-Methoxyphenyl)-1,2,4-oxadiazol-5-yl)methylthio)-3-allylquinazolin 4(3H)-one], for which the melting point lay in the range of 122 to 124 °C. For the same compound, the IC50 in data set [1] worked out at 57 ± 5 nM. Moreover, the IC50 in data set [2] was determined as 57 ± 5 nM. In data set [3], this compound had a viability at 96 h, 50 µM of 89%. Moreover, in data set [4], the IC50 was 59 ± 5 nM. In data set [5], this compound showed a GI50 of 57 nM. Also, the IC50 in data set [6] amounted to 56 ± 4 nM.
`C#Cc1cccc(Nc2ncnc3cc(OCCOC)c(OCCOC)cc23)c1` [Erlotinib, reference compound]: the IC50 in data set [1] stood at 30 ± 3 nM; in data set [2] it was 30 ± 3 nM; in data set [4] it was 40 ± 3 nM; in data set [6], 30 ± 3 nM. Also, it took 33 nM to inhibit growth in data set [5] by half (GI50).

For orientation: IC50 means the concentration at which inhibition is half-maximal. One may read the melting point as the temperature, or range, at which the solid turns liquid. In general, viability refers to the share of living cells, or the viability signal relative to a control. Broadly, the GI50 is the concentration giving 50% growth inhibition.
